“Also recorded” adds a separate entry of the source.
Legend:
Type in all cases: in vivo, human
[1] = system: hepatocellular carcinoma (HCC); experiment: Overall survival / time to progression in placebo-controlled HCC trial (SHARP), Cox multivariate analysis
Excerpt: Overall survival (OS) is defined as the time from randomization to death due to any cause. Overall survival (OS) of subjects alive at the time of analysis will be censored at their last date of follow-up.
Time to progression (TTP) is defined as the time from randomization to disease progression (radiological only). Patients without tumor progression at the time of analysis will be censored at their last date of tumor evaluation.

plasma bFGF = experiment: Plasma bFGF level, baseline vs C3D1, HCC patients
plasma Ang2 = experiment: Plasma Ang2 level, baseline vs C3D1, HCC patients
plasma IGF-2 = experiment: Plasma IGF-2 level, baseline vs C3D1, HCC patients
plasma VEGF = experiment: Plasma VEGF ELISA, baseline vs C3D1, HCC patients
plasma HGF = experiment: Plasma HGF ELISA, baseline vs C3D1, HCC patients
plasma EGF = experiment: Plasma EGF level, baseline vs C3D1, HCC patients
plasma Ras p21 = experiment: Plasma Ras p21 ELISA, baseline vs C3D1, HCC patients; settings: for Ras p21 Δ from BL (e) / mean change in sorafenib arm: C3D1, mean of per-subject absolute change, p vs placebo 0.046
Description: ELISA kits for Ras p21 (cat #06490009) were from Oncogene Science Biomarker Group, part of Siemens Diagnostics, Cambridge, Mass. This assay detects all forms of circulating Ras p21 (H-Ras, N-Ras, and […]).
After washing, a streptavidin-horseradish peroxidase conjugate was added.

plasma c-KIT (s-c-Kit) = experiment: Plasma c-KIT ELISA, baseline vs cycle 3 day 1 (C3D1), HCC patients
Description: Plasma samples were obtained from patients at the time of screening, C3D1, and at the end of treatment visit.
All six assays were sandwich immunoassays obtained from commercial sources. All assays were performed according to the manufacturers' protocols, as summarized below. All samples were assayed in duplicate and the average value was used for correlative analysis.
ELISA kits for VEGF (cat #DVE00), s-VEGFR-2 (cat #DVR200), HGF (cat #DHG00), and c-KIT (cat #DSCR00) were obtained from R&D Systems.
A monoclonal capture antibody specific to the target protein was provided pre-coated in microplate wells. Appropriately diluted samples and standards were pipetted into the wells, allowing capture of the target protein by the immobilized antibodies. Unbound sample was washed away, and a horseradish peroxidase-conjugated antibody also specific for the target protein was added to the wells. Wells were washed again, and a substrate solution was added to each well. The colored reaction product was measured spectrophotometrically and was translated to the quantity (pg/mL or ng/mL) of biomarker protein in the sample by use of a simultaneously generated standard curve.

[2] = sorafenib-treated HCC patients, C3D1 vs baseline
[3] = sorafenib arm, C3D1, mean of per-subject absolute change, p vs placebo <0.0001
[4] = plasma level, in response to sorafenib treatment

CNC(=O)c1cc(Oc2ccc(NC(=O)Nc3ccc(Cl)c(C(F)(F)F)c3)cc2)ccn1 [Sorafenib]
time to progression and/or overall survival compared to placebo treated subjects ([1]; HCC patients): increases
Treatment HR for OS ([1]; multivariate analysis of all patients, sorafenib vs placebo, P-value 0.043): 0.779
bFGF Δ from BL (e) (plasma bFGF; sorafenib arm, C3D1, mean of per-subject absolute change, p vs placebo 0.196): 2.5 pg/mL
Direction of change of plasma bFGF in sorafenib (plasma bFGF; [2]): None
Ang2 Δ from BL (e) (plasma Ang2; [3]): -293.0 pg/mL
Ang2 Mean (d) (plasma Ang2; sorafenib arm, C3D1, baseline mean 7510.0): 6456.4 pg/mL
Direction of change of plasma Ang2 in sorafenib (plasma Ang2; [2]): attenuated and remain unchanged and does not change significantly and None
IGF-2 Mean change in sorafenib (plasma IGF-2; [4]): −11.3%
IGF-2 Δ from BL (e) (plasma IGF-2; sorafenib arm, C3D1, mean of per-subject absolute change, p vs placebo 0.145): -129.4 ng/mL
IGF-2 Mean (d) (plasma IGF-2; sorafenib arm, C3D1, baseline mean 938.8): 847.9 ng/mL
Direction of change of plasma IGF-2 in sorafenib (plasma IGF-2; [2]): decreases
VEGF Mean change in sorafenib arm (plasma VEGF; [4]): +195.7%
VEGF Δ from BL (e) (plasma VEGF; sorafenib arm, C3D1, mean of per-subject absolute change, p vs placebo 0.010): 66.8 pg/mL
VEGF Mean (d) (plasma VEGF; sorafenib arm, C3D1, baseline mean 100.7): 170.1 pg/mL
Direction of change of plasma VEGF in response to sorafenib (plasma VEGF; [2]): elevated; also recorded: increase
median absolute change of plasma HGF levels (plasma HGF; intra-patient sorafenib-associated C3D1 change compared to baseline): -294.02 pg/mL
HGF Mean change in sorafenib arm (plasma HGF; [4]): −7.4%
HGF Δ from BL (e) (plasma HGF; [3]): -285.0 pg/mL
HGF Mean (d) (plasma HGF; sorafenib arm, C3D1, baseline mean 2630.0): 2220.3 pg/mL
Direction of change of plasma HGF in response to sorafenib (plasma HGF; [2]): attenuated; also recorded: decrease
EGF Δ from BL (e) (plasma EGF; sorafenib arm, C3D1, mean of per-subject absolute change, p vs placebo 0.240): -8.9 pg/mL
EGF Mean (d) (plasma EGF; sorafenib arm, C3D1, baseline mean 61.8): 53.4 pg/mL
Direction of change of plasma EGF in sorafenib (plasma EGF; [2]): decreases; also recorded: Mixed
Ras p21 Δ from BL (e) / mean change in sorafenib arm (plasma Ras p21; sorafenib arm): -259.8 pg/mL
Ras p21 Δ from BL (e) / mean change in sorafenib arm (plasma Ras p21; sorafenib arm, listed as sorafenib): -259.8 pg/mL
Ras p21 Mean (d) (plasma Ras p21; sorafenib arm, C3D1, baseline mean 2115.7): 1144.7 pg/mL
Direction of change of plasma Ras p21 in response to sorafenib (plasma Ras p21; [2]): attenuated; also recorded: decrease
c-KIT Mean change in sorafenib arm (plasma c-KIT (s-c-Kit); [4]): −33.9%
c-KIT Δ from BL (e) (plasma c-KIT (s-c-Kit); [3]): -4.5 ng/mL
c-KIT Mean (d) (plasma c-KIT (s-c-Kit); sorafenib arm, C3D1, baseline mean 12.2): 8.6 ng/mL
Direction of change of plasma c-KIT in response to sorafenib (plasma c-KIT (s-c-Kit); [2]): attenuated; also recorded: decrease

From patent US20110257035A1, “IDENTIFICATION OF SIGNATURE GENES ASSOCIATED WITH HEPATOCELLULAR CARCINOMA” (Bayer Healthcare LLC, priority 2008, published 2011)
